According to patent US10570122B2, “Compounds with anti-tumoral activity” (AB Science, priority 2015, dated 2020):

Assays:
[1] = tested on: MDAMB231; assay: CellTiter-Blue cell-based survival/proliferation assay, MDAMB231; conditions: Homo sapiens, MDA-MB-231; MDAMB231 breast tumor cell line, 48 h
Outline: (§1)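 Compounds, diluted tenfold serially over 0–10 μM, are applied to 1·10^4 seeded cells per well for 48 h at 37 °C. Resorufin formed during a further 4 h with CellTiter-Blue is detected by fluorescence emission at 590 nm.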

[2] = tested on: AGS; assay: CellTiter-Blue cell-based survival/proliferation assay, AGS; conditions: Homo sapiens; AGS stomach tumor cell line, 48 h
Outline: as §1

[3] = tested on: OPM2; assay: CellTiter-Blue cell-based survival/proliferation assay, OPM2; conditions: Homo sapiens, OPM-2, Myeloma cell line OPM2, 48 h, read-out: Anti-tumoral activity (measured IC50) OPM2
Outline: as §1

[4] = tested on: A4513; assay: CellTiter-Blue cell-based survival/proliferation assay, A4513; conditions: Homo sapiens; A4513 Ewing cell line, 48 h
Outline: as §1

[5] = tested on: KARPAS299; assay: CellTiter-Blue cell-based survival/proliferation assay, KARPAS299; conditions: Homo sapiens, KARPAS-299, Lymphoma cell line KARPAS299, 48 h, read-out: Anti-tumoral activity (measured IC50) KARPAS299
Outline: as §1

[6] = tested on: U118; assay: CellTiter-Blue cell-based survival/proliferation assay, U118; conditions: Homo sapiens; U118 glioblastoma cell line, 48 h
Outline: as §1

[7] = tested on: BT20; assay: CellTiter-Blue cell-based survival/proliferation assay, BT20; conditions: Homo sapiens, BT-20; BT20 breast tumor cell line, 48 h
Outline: as §1

[8] = tested on: U87MG; assay: CellTiter-Blue cell-based survival/proliferation assay, U87MG; conditions: Homo sapiens, U-87 MG; U87_MG glioblastoma cell line, 48 h
Outline: as §1

[9] = tested on: PANC1; assay: CellTiter-Blue cell-based survival/proliferation assay, PANC1; conditions: Homo sapiens, PANC-1; PANC_1 pancreas tumor cell line, 48 h
Outline: as §1

[10] = tested on: HUT78; assay: CellTiter-Blue cell-based survival/proliferation assay, HUT78; conditions: Homo sapiens, Lymphoma cell line HUT78, 48 h, read-out: Anti-tumoral activity (measured IC50) HUT78
Outline: as §1

[11] = tested on: HEP2; assay: CellTiter-Blue cell-based survival/proliferation assay, HEP2; conditions: Homo sapiens, HEp-2; HEP2 head & neck tumor cell line, 48 h
Outline: as §1

[12] = tested on: DLD1; assay: CellTiter-Blue cell-based survival/proliferation assay, DLD1; conditions: Homo sapiens, DLD-1; DLD_1 colorectal tumor cell line, 48 h
Outline: as §1

[13] = tested on: CALU6; assay: CellTiter-Blue cell-based survival/proliferation assay, CALU6; conditions: Homo sapiens, Calu-6; CALU6 lung tumor cell line, 48 h
Outline: as §1

[14] = tested on: TOV112D; assay: CellTiter-Blue cell-based survival/proliferation assay, TOV112D; conditions: Homo sapiens; TOV112D ovary tumor cell line, 48 h
Outline: as §1

[15] = tested on: A549; assay: CellTiter-Blue cell-based survival/proliferation assay, A549; conditions: Homo sapiens; A549 lung tumor cell line, 48 h
Outline: as §1

[16] = tested on: HCT116; assay: CellTiter-Blue cell-based survival/proliferation assay, HCT116; conditions: Homo sapiens, HCT-116; HCT116 colorectal tumor cell line, 48 h
Outline: as §1

[17] = tested on: REC1; assay: CellTiter-Blue cell-based survival/proliferation assay, REC1; conditions: Homo sapiens, Lymphoma cell line REC1, 48 h, read-out: Anti-tumoral activity (measured IC50) REC1
Outline: as §1

[18] = tested on: SW579; assay: CellTiter-Blue cell-based survival/proliferation assay, SW579; conditions: Homo sapiens; SW579 head & neck tumor cell line, 48 h
Outline: as §1

[19] = tested on: MESSA; assay: CellTiter-Blue cell-based survival/proliferation assay, MESSA; conditions: Homo sapiens, MES-SA; MESSA ovary tumor cell line, 48 h
Outline: as §1

[20] = tested on: ACHN; assay: CellTiter-Blue cell-based survival/proliferation assay, ACHN; conditions: Homo sapiens; ACHN kidney tumor cell line, 48 h
Outline: as §1

[21] = tested on: MELWO; assay: CellTiter-Blue cell-based survival/proliferation assay, MELWO; conditions: Homo sapiens; MEL_WO melanoma cell line, 48 h
Outline: as §1

[22] = tested on: U2OS; assay: CellTiter-Blue cell-based survival/proliferation assay, U2OS; conditions: Homo sapiens; U2OS osteosarcoma cell line, 48 h
Outline: as §1

[23] = tested on: BXPC3; assay: CellTiter-Blue cell-based survival/proliferation assay, BXPC3; conditions: Homo sapiens, BXPC-3; BXPC3 pancreas tumor cell line, 48 h
Outline: as §1

[24] = tested on: A375; assay: CellTiter-Blue cell-based survival/proliferation assay, A375; conditions: Homo sapiens, A-375; A375 melanoma cell line, 48 h
Outline: as §1

[25] = tested on: DU145; assay: CellTiter-Blue cell-based survival/proliferation assay, DU145; conditions: Homo sapiens, DU-145; DU145 prostate tumor cell line, 48 h
Outline: as §1

[26] = tested on: HGC27; assay: CellTiter-Blue cell-based survival/proliferation assay, HGC27; conditions: Homo sapiens, HGC-27; HGC27 stomach tumor cell line, 48 h
Outline: as §1

[27] = tested on: HL60; assay: CellTiter-Blue cell-based survival/proliferation assay, HL60; conditions: Homo sapiens, HL-60, Leukemia cell line HL60, 48 h, read-out: Anti-tumoral activity (measured IC50) HL60
Outline: as §1

[28] = tested on: H1299; assay: CellTiter-Blue cell-based survival/proliferation assay, H1299; conditions: Homo sapiens, NCI-H1299; H1299 lung tumor cell line, 48 h
Outline: as §1

[29] = tested on: PC3; assay: CellTiter-Blue cell-based survival/proliferation assay, PC3; conditions: Homo sapiens, PC-3; PC3 prostate tumor cell line, 48 h
Outline: as §1

[30] = tested on: A498; assay: CellTiter-Blue cell-based survival/proliferation assay, A498; conditions: Homo sapiens; A498 kidney tumor cell line, 48 h
Outline: as §1

[31] = tested on: HEPG2; assay: CellTiter-Blue cell-based survival/proliferation assay, HEPG2; conditions: Homo sapiens; HEPG2 liver tumor cell line, 48 h
Outline: as §1

[32] = tested on: PLCPRF5; assay: CellTiter-Blue cell-based survival/proliferation assay, PLCPRF5; conditions: Homo sapiens, PLC-PRF-5; PLC_PRF5 liver tumor cell line, 48 h
Outline: as §1

[33] = tested on: CLS354; assay: CellTiter-Blue cell-based survival/proliferation assay, CLS354; conditions: Homo sapiens, CLS-354; CLS354_4 head & neck tumor cell line, 48 h
Outline: as §1

| Structure (SMILES) | IC50 [1] | IC50 [2] | IC50 [3] | IC50 [4] | IC50 [5] | IC50 [6] | IC50 [7] | IC50 [8] | IC50 [9] | IC50 [10] | IC50 [11] | IC50 [12] | IC50 [13] | IC50 [14] | IC50 [15] | IC50 [16] | IC50 [17] | IC50 [18] | IC50 [19] | IC50 [20] | other results |
| --- | --- | --- | --- | --- | --- | --- | --- | --- | --- | --- | --- | --- | --- | --- | --- | --- | --- | --- | --- | --- | --- |
| CCOCc1cc(C)cc(Nc2nc(-c3ccc(N4CCNC4=O)cc3)cs2)c1 [Example 018, 1-{4-[2-(3-Ethoxymethyl-(5-methyl-phenylamino))-thiazol-4-yl]-phenyl}-imidazolidin-2-one] | > 1 µM | > 1 µM | ≤ 0.1 µM | ≤ 0.1 µM | ≤ 0.1 µM | > 1 µM | > 1 µM | > 1 µM | > 1 µM | ≤ 0.1 µM | ≤ 0.1 µM | > 1 µM | > 1 µM | ≤ 0.1 µM | ≤ 0.1 µM | 0.1 to 0.5 µM | ≤ 0.1 µM | > 1 µM | > 1 µM | 0.5 to 1 µM | IC50 [21]: > 1 µM; IC50 [22]: 0.1 to 0.5 µM; IC50 [23]: > 1 µM; IC50 [24]: ≤ 0.1 µM; IC50 [25]: > 1 µM; IC50 [26]: 0.5 to 1 µM; IC50 [27]: ≤ 0.1 µM; IC50 [28]: > 1 µM; IC50 [29]: > 1 µM; IC50 [30]: 0.5 to 1 µM; IC50 [31]: > 1 µM; IC50 [32]: > 1 µM; IC50 [33]: ≤ 0.1 µM |
| CCOCc1ccc(C)c(Nc2nc(-c3ccc(-n4cccn4)cc3)cs2)c1 [Example 015, (5-Ethoxymethyl-2-methyl-phenyl)-[4-(4-pyrazol-1-yl-phenyl)-thiazol-2-yl]-amine] | > 1 µM | > 1 µM | 0.1 to 0.5 µM | 0.1 to 0.5 µM | ≤ 0.1 µM | > 1 µM | > 1 µM | > 1 µM | > 1 µM | ≤ 0.1 µM | > 1 µM | > 1 µM | > 1 µM | 0.5 to 1 µM | > 1 µM | > 1 µM | ≤ 0.1 µM | > 1 µM | > 1 µM | > 1 µM | IC50 [21]: > 1 µM; IC50 [22]: > 1 µM; IC50 [23]: > 1 µM; IC50 [24]: > 1 µM; IC50 [25]: > 1 µM; IC50 [26]: > 1 µM; IC50 [27]: ≤ 0.1 µM; IC50 [28]: > 1 µM; IC50 [29]: ≤ 0.1 µM; IC50 [30]: 0.5 to 1 µM; IC50 [31]: > 1 µM; IC50 [32]: > 1 µM; IC50 [33]: ≤ 0.1 µM |
| Cc1ccc(CO)cc1Nc1nc(-c2ccc(-n3cccn3)cc2)cs1 [Example 016, {4-Methyl-3-[4-(4-pyrazol-1-yl-phenyl)-thiazol-2-ylamino]-phenyl}-methanol] | > 1 µM | > 1 µM | > 1 µM | > 1 µM | > 1 µM | > 1 µM | > 1 µM | > 1 µM | > 1 µM | > 1 µM | > 1 µM | > 1 µM | > 1 µM | > 1 µM | > 1 µM | > 1 µM | > 1 µM | > 1 µM | > 1 µM | > 1 µM | IC50 [21]: > 1 µM; IC50 [22]: > 1 µM; IC50 [23]: > 1 µM; IC50 [24]: > 1 µM; IC50 [25]: > 1 µM; IC50 [26]: > 1 µM; IC50 [27]: > 1 µM; IC50 [28]: > 1 µM; IC50 [29]: > 1 µM; IC50 [30]: > 1 µM; IC50 [31]: > 1 µM; IC50 [32]: > 1 µM; IC50 [33]: > 1 µM |
| COc1ccc(C)c(Nc2ncc(-c3ccc(-n4cccn4)nc3)o2)c1 [Example 001, (5-Methoxy-2-methyl-phenyl)-[5-(6-pyrazol-1-yl-pyridin-3-yl)-oxazol-2-yl]-amine] | > 1 µM | > 1 µM | > 1 µM | > 1 µM | 0.5 to 1 µM | > 1 µM | > 1 µM | > 1 µM | > 1 µM | > 1 µM | > 1 µM | > 1 µM | > 1 µM | > 1 µM | > 1 µM | > 1 µM | 0.5 to 1 µM | > 1 µM | > 1 µM | > 1 µM | IC50 [21]: > 1 µM; IC50 [22]: > 1 µM; IC50 [23]: > 1 µM; IC50 [24]: > 1 µM; IC50 [25]: > 1 µM; IC50 [26]: > 1 µM; IC50 [27]: > 1 µM; IC50 [28]: > 1 µM; IC50 [29]: > 1 µM; IC50 [30]: > 1 µM; IC50 [31]: > 1 µM; IC50 [32]: > 1 µM; IC50 [33]: > 1 µM |
